Results on two compounds are retold here after patent publication US11400059B2, “Treatment of pain and/or pain related symptoms associated with dysmenorrhea” (ALYRA BIOTECH PTY LTD, priority 2017, dated 2022).

One data set concerns the target T1, hTLR9 (Homo sapiens, UniProt Q9NR96).
T1 construct: expressed in transfected cells; host or cells: HEK293
T1 sequence (Q9NR96 26-1032): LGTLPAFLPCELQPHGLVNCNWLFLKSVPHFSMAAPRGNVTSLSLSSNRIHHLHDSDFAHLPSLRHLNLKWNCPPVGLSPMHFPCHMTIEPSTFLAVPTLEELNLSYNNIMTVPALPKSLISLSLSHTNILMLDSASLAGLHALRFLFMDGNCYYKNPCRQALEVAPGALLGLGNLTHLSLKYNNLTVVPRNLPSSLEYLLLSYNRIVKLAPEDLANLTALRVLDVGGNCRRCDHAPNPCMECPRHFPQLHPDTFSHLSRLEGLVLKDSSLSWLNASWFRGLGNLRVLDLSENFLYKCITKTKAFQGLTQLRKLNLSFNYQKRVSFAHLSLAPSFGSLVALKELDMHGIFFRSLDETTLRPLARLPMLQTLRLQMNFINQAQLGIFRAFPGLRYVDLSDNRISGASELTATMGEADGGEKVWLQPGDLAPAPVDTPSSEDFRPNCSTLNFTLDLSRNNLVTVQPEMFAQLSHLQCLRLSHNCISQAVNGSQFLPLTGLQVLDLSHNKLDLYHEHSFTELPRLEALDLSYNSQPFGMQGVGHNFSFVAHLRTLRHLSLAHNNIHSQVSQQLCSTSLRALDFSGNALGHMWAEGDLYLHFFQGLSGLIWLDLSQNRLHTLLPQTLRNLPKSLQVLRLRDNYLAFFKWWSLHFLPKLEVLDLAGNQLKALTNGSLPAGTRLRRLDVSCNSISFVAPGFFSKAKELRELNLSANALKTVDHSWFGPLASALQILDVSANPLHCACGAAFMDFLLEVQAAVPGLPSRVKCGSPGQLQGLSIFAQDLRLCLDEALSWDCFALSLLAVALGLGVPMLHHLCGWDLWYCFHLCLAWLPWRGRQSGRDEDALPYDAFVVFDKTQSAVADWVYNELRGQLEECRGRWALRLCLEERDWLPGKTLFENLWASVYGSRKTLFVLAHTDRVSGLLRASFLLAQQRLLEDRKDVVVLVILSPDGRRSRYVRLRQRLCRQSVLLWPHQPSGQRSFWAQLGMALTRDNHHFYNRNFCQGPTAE
In words: Human TLR antagonist screening, NF-κB SEAP reporter in HEK293 cells. To be noted: antagonist mode, test article 1 μM, +ODN 2006 500 ng/ml; No Sample 7, Control− 1. The format is cell-based. How it is done: (§1) Toll-Like Receptor (TLR), NOD-Like Receptor (NLR) and C-Type Lectin Receptor (CLR) stimulation were tested by assessing NF-κB activation in HEK293 cells expressing a given TLR, NLR or CLR. The activity of the test articles was tested at one concentration and compared to control ligands. These steps were performed in triplicate. hTLR9: CpG ODN 2006 at 1 μg/mL Antagonist: 500 ng/mL. In a 96-well plate (200 μL total volume) containing the appropriate cells (50,000-75,000 cells/well), 20 μL of the test article or the positive control ligand was added to the wells. For the antagonist assay, the test article was incubated with the cells, at 37° C. with 5% CO2, for 30 minutes prior to the addition of the positive control ligand to the wells. The media added to the wells was designed for the detection of NF-κB induced SEAP expression. After a 16-24 hr incubation the optical density (OD) was read at 650 nm on a Molecular Devices SpectraMax 340PC absorbance detector. Fold induction (ratio of average induced value to average non-induced value) was determined for each TLR, NOD1, NOD2, Dectin-1a, Dectin-1b.

The target in another data set is T2, Human TLR8 (Homo sapiens, UniProt Q9NR97).
T2 construct: expressed in transfected cells; host or cells: HEK293
T2 sequence (Q9NR97 27-1041): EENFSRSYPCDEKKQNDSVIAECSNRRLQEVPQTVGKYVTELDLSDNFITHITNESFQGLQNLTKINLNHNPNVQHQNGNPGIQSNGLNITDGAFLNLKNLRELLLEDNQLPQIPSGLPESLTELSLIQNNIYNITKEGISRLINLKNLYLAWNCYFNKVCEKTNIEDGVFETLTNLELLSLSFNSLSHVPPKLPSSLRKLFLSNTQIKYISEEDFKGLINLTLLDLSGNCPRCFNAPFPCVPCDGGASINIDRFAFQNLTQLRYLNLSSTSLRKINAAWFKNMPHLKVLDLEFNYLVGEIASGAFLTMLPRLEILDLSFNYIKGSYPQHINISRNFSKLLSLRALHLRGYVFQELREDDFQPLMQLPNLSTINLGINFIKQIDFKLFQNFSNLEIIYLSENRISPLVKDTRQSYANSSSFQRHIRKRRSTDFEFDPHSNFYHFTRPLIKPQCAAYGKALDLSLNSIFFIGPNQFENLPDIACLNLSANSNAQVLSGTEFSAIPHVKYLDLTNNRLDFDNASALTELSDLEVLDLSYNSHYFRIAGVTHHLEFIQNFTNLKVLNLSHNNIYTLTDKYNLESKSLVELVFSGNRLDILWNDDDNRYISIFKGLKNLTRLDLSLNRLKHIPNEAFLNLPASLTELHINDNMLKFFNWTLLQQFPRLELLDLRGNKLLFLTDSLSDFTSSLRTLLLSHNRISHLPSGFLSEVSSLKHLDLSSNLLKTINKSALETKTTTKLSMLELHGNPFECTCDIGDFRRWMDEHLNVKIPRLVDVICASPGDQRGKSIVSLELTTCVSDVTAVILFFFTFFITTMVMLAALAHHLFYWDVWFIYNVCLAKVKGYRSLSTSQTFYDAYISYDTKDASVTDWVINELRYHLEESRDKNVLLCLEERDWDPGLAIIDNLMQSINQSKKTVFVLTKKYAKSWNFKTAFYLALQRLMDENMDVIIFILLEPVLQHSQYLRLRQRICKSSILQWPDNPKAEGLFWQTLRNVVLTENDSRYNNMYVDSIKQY
Described as above. Conditions: antagonist mode, test article 1 μM, +CL075 200 ng/ml, No Sample 13, Control− 1. The format is cell-based. How it is done:
as §1, with “hTLR8: […]” for “hTLR9: CpG ODN 2006 at 1 μg/mL Antagonist: 500 ng/mL.”

`CNCCC=C1c2ccccc2CCc2ccccc21` [Nortriptyline]: the “Fold Induction” value is reported as “slight inhibitory effect” at hTLR9, “slight inhibitory effect” at Human TLR8 and 11 on Human TLR8 (listed as Nor).
Turning to `CN(C)CCC=C1c2ccccc2CCc2ccccc21` [Amitriptyline], the “Fold Induction” value at hTLR9 is “slight inhibitory effect”; on Human TLR8 it was “slight inhibitory effect”; on Human TLR8 (listed as Ami), 11.
